From patent US9988370B2, “Benzisoxazole derivative salt” (RaQualia Pharma Inc., priority 2014, dated 2018)

Experiments:
[1] = Hygroscopicity study (storage at 90% RH, weighing and PXRD after five days); assay type: physicochemical; details: for Water uptake after 5 days: humidity chamber at 90% RH (BaCl2-2H2O), five days; for PXRD (compared to intact bulk) / PXRD - overnight at ambient condition: after five days at 90% RH; for PXRD - overnight at ambient condition: then equilibrated at ambient temperature overnight
Experimental: The salt samples are weighed into aluminum crucibles, placed onto a sample holder, and stored in the humidity chamber at 90% RH (BaCl2-2H2O). The samples are visually inspected with a hand magnifying lens and weighed on an analytical balance after five days. The samples are analyzed by PXRD after five days, then allowed to equilibrate at ambient temperatures overnight and re-analyzed by PXRD to evaluate stability of suspected hydrates under ambient conditions.

[2] = Solid-state stability study under 40° C./75% RH (HPLC remaining % and purity); assay type: physicochemical; details: 40° C./75% RH for 6 month; for Purity (Area %) Main peak: counterion area excluded
Experimental: HPLC data are obtained by Waters Alliance 2695 HPLC system with 2996 PDA detector using the following conditions; • Column: Inertsil ODS-3 (3 microm, 4.6×150 mm), • Eluent: acetonitrile/10 mM ammonium acetate=32/68, • Detection: UV at 215 nm, • Flow rate: 1 mL/min, and • Column temperature: 40° C.
Solid-state stability study is performed using Nagano Science Constant temperature/humidity control chamber LH-20-11M or LH-21-11M. The sample is placed in the chamber and exposed under 40° C./75% RH. The crystalline form and thermal behavior of the resultant sample after the exposure are evaluated by PXRD and TG/DTA, respectively. The remaining % and the purity are determined by HPLC measurement.

Compound	Water uptake after 5 days [1]	PXRD (compared to intact bulk) [1]	PXRD - overnight at ambient condition [1]	Assay Remaining % [2]	Purity (Area %) Main peak [2]
Br.O=C(O)C1(CN2CCC(COc3noc4cccc(OCC(F)(F)F)c34)CC2)CCOCC1 [HBr-salt, 4-{[4-({[4-(2,2,2-trifluoroethoxy)-1,2-benzisoxazol-3-yl]oxy}methyl)piperidin-1-yl]methyl}tetrahydro-2H-pyran-4-carboxylic acid hydrobromide salt]	–	same	no change	99%	99.9 Area %
4-{[4-({[4-(2,2,2-trifluoroethoxy)-1,2-benzisoxazol-3-yl]oxy}methyl)piperidin-1-yl]methyl}tetrahydro-2H-pyran-4-carboxylic acid hemi-ethanedisulfonate salt [EDSA-salt]	–	same	no change	99%	100.0 Area %
O=C(O)C1(CN2CCC(COc3noc4cccc(OCC(F)(F)F)c34)CC2)CCOCC1 [Free form, 4-{[4-({[4-(2,2,2-trifluoroethoxy)-1,2-benzisoxazol-3-yl]oxy}methyl)piperidin-1-yl]methyl}tetrahydro-2H-pyran-4-carboxylic acid]	16.7 wt %	different from the intact bulk	no change	87%	95.6 Area %

Continued, values first:

Water uptake after 5 days [1]	PXRD (compared to intact bulk) [1]	PXRD - overnight at ambient condition [1]	Assay Remaining % [2]	Purity (Area %) Main peak [2]	Compound
more than 40 wt %	–	–	–	–	O=C([O-])C1(CN2CCC(COc3noc4cccc(OCC(F)(F)F)c34)CC2)CCOCC1.[Na+] [sodium salt, 4-{[4-({[4-(2,2,2-trifluoroethoxy)-1,2-benzisoxazol-3-yl]oxy}methyl)piperidin-1-yl]methyl}tetrahydro-2H-pyran-4-carboxylic acid sodium salt]
–	same	no change	98%	99.7 Area %	Cc1ccc(S(=O)(=O)O)cc1.O=C(O)C1(CN2CCC(COc3noc4cccc(OCC(F)(F)F)c34)CC2)CCOCC1 [pTSA-salt, 4-{[4-({[4-(2,2,2-trifluoroethoxy)-1,2-benzisoxazol-3-yl]oxy}methyl)piperidin-1-yl]methyl}tetrahydro-2H-pyran-4-carboxylic acid p-toluenesulfonate salt]
–	same	no change	97%	98.8 Area %	Cl.O=C(O)C1(CN2CCC(COc3noc4cccc(OCC(F)(F)F)c34)CC2)CCOCC1 [HCl-salt, 4-{[4-({[4-(2,2,2-trifluoroethoxy)-1,2-benzisoxazol-3-yl]oxy}methyl)piperidin-1-yl]methyl}tetrahydro-2H-pyran-4-carboxylic acid hydrochloride salt]
